Reference: patent US20130190327A1, “BIS-FATTY ACID CONJUGATES AND THEIR USES” (CATABASIS PHARMACEUTICALS INC, priority 2010, published 2013)
pIC50: −log10 of the molar value.

How the values were obtained:
NF-κB = NF-κB luciferase reporter assay in RAW 264.7 macrophages; format: cell-based; conditions: Mus musculus, RAW264.7; RAW 264.7 reporter cells, 2 hour pretreatment, 200 ng/ml LPS for 3 hours; read-out: NF-kB inhibitory activity IC50
Description: RAW 264.7 cells stably expressing a 3× NFkB response elemement-drive luciferase reporter were seeded into 96 well plates in sera-free medium (Optimem) 18 hours prior to compound application. Compounds of the invention were prepared by first making 100 mM stock solutions in EtOH. Stock solutions were then diluted 1:100 in low LPS FBS (Gemini BenchMark 100-106), mixed vigorously and allowed to incubate at room temperature for 30 minutes. 1:2 serial dilutions were then made in FBS supplemented with 1% EtOH, mixed vigorously, and again allowed to incubate at room temperature for 30 minutes before adding to RAW 264.7 reporter cells (final concentrations: 10% FBS, 100 uM highest compound dilution, 0.1% EtOH) for a 2 hour pretreatment prior to stimulation with LPS. Cells were then stimulated with 200 ng/ml LPS or vehicle control for 3 hours in the presence of the compounds of the invention. A set of six vehicles was left unstimulated with LPS in order to measure the assay floor. AlamarBlue viability dye (Invitrogen) was added to cells simultaneously with the delivery of LPS (final AlamarBlue concentration of 10%).
After the 3 h incubation period with LPS, cell viability was measured by reading fluorescence (excitation 550 nm, emission 595 nm) with a Perkin Elmer Victor V plate reader. Then cell media was aspirated from each well. Luciferase signal was then developed by addition of the Britelite Plus reagent (Perkin Elmer). Luciferase activity was measured with the Perkin Elmer Victor V plate reader. NF-κB activity was expressed as a percent of the vehicle control wells (stimulated with LPS). Compounds were tested at 6 dose point titrations in triplicate to determine IC50 values. Table 1 summarizes the […] values for a number of bis-fatty acid conjugates in this NF-κB luciferase reporter assay.

[1] = system: ApoB secretion in HepG2 cells; assay: ApoB secretion in HepG2 cells (ELISA); format: cell-based; conditions: Homo sapiens, incubated for 16 hours, FIG. 1, read-out: IC50 (concentration at which 50% of ApoB secretion is inhibited)
Description: HepG2 cells (ATCC) are seeded at 25,000 cells per well in collagen-coated 96-well plates in growth media (DMEM with 10% fetal bovine serum). The following day, bis-fatty acid conjugates are complexed to lipoprotein-deficient fetal bovine serum at the appropriate concentration. Growth media is then removed from and the HepG2 cells are washed once with PBS. The lipoprotein-deficient FBS with the complexed bis-fatty acid conjugates is added to DMEM for a final 10% concentration. Each concentration of bis-fatty acid is tested in triplicate. Cells are incubated for 16 hours with the bis-fatty acid. Alamar Blue® (Invitrogen) is then added to the media to determine cell viability per the manufacturer's instructions. Two hours after Alamar Blue® addition, the media is removed and placed in a black 96-well plate. The plate is then read at 550 nm/590 nm to determine cell viability. The media is then used to determine ApoB concentrations using ELISA kits (Mabtech AB). Percent inhibition of ApoB secretion is determined by normalizing data to vehicle treated wells. For a given compound, an IC50 (concentration at which 50% of ApoB secretion is inhibited) can also be determined by using a 4 parameter-fit inhibition curve model (Graph Pad Prism®).

pIC50 (NF-κB) | pIC50 [1] | Structure (SMILES)
< 3.70 | – | CC/C=C\C/C=C\C/C=C\C/C=C\C/C=C\C/C=C\CCC(=O)O [DHA, docosahexaenoic acid, reference compound]
< 3.70 | – | CC/C=C\C/C=C\C/C=C\C/C=C\C/C=C\CCCC(=O)O [EPA, eicosapentaenoic acid, reference compound]
> 3.70 | – | CC/C=C\C/C=C\C/C=C\C/C=C\C/C=C\C/C=C\CCC(=O)NCCNC(=O)CC/C=C\C/C=C\C/C=C\C/C=C\C/C=C\C/C=C\CC [I-1, (4Z,7Z,10Z,13Z,16Z,19Z)-docosa-4,7,10,13,16,19-hexaenoic acid [2-((4Z,7Z,10Z,13Z,16Z,19Z)-docosa-4,7,10,13,16,19-hexaenoylamino)-ethyl]-amide]
> 4.30 | – | CC/C=C\C/C=C\C/C=C\C/C=C\C/C=C\C/C=C\CCC(=O)NCCN(C)CCNC(=O)CC/C=C\C/C=C\C/C=C\C/C=C\C/C=C\C/C=C\CC [I-2, (4Z,7Z,10Z,13Z,16Z,19Z)-docosa-4,7,10,13,16,19-hexaenoic acid (2-{[2-((4Z,7Z,10Z,13Z,16Z,19Z)-docosa-4,7,10,13,16,19-hexaenoylamino)-ethyl]-methyl-amino}-ethyl)-amide]
> 3.70 | – | CC/C=C\C/C=C\C/C=C\C/C=C\C/C=C\C/C=C\CCC(=O)NCCNC(=O)CCC/C=C\C/C=C\C/C=C\C/C=C\C/C=C\CC [I-37, (4Z,7Z,10Z,13Z,16Z,19Z)-docosa-4,7,10,13,16,19-hexaenoic acid [2-((5Z,8Z,11Z,14Z,17Z)-icosa-5,8,11,14,17-pentaenoylamino)-ethyl]-amide]
> 4.30 | – | CC/C=C\C/C=C\C/C=C\C/C=C\C/C=C\C/C=C\CCC(=O)NCCN(C)CCNC(=O)CCC/C=C\C/C=C\C/C=C\C/C=C\C/C=C\CC [I-39, (4Z,7Z,10Z,13Z,16Z,19Z)-docosa-4,7,10,13,16,19-hexaenoic acid (2-{[2((5Z,8Z,11Z,14Z,17Z)-icosa-5,8,11,14,17-pentaenoylamino)-ethyl]-methyl-amino}-ethyl)-amide]
> 4.30 | – | CC/C=C\C/C=C\C/C=C\C/C=C\C/C=C\C/C=C\CCC(=O)N[C@@H](CCCCNC(=O)CCC/C=C\C/C=C\C/C=C\C/C=C\C/C=C\CC)C(=O)O [I-45, (S)-2-((4Z,7Z,10Z,13Z,16Z,19Z)-docosa-4,7,10,13,16,19-hexaenoylamino)-6-((5Z,8Z,11Z,14Z,17Z)-icosa-5,8,11,14,17-pentaenoylamino)-hexanoic acid]
> 4.30 | – | CC/C=C\C/C=C\C/C=C\C/C=C\C/C=C\C/C=C\CCC(=O)N[C@H](C(=O)OC)[C@@H](C)OC(=O)[C@H](C)NC(=O)CCC/C=C\C/C=C\C/C=C\C/C=C\C/C=C\CC [I-65, (2S,3R)-methyl 2-((4Z,7Z,10Z,13Z,16Z,19Z)-docosa-4,7,10,13,16,19-hexaenamido)-3-((S)-2-((5Z,8Z,11Z,14Z,17Z)-icosa-5,8,11,14,17-pentaenamido)propanoyloxy)butanoate]
> 4.30 | 5.02 | CC/C=C\C/C=C\C/C=C\C/C=C\C/C=C\C/C=C\CCC(=O)N[C@@H](C)C(=O)O[C@H](C)[C@H](NC(=O)CCC/C=C\C/C=C\C/C=C\C/C=C\C/C=C\CC)C(=O)OC [I-66, (2S,3R)-methyl 3-((S)-2-((4Z,7Z,10Z,13Z,16Z,19Z)-docosa-4,7,10,13,16,19-hexaenamido)propanoyloxy)-2-((5Z,8Z,11Z,14Z,17Z)-icosa-5,8,11,14,17-pentaenamido)butanoate]
> 3.70 | – | CC/C=C\C/C=C\C/C=C\C/C=C\C/C=C\C/C=C\CCC(=O)N1CCN(C(=O)CCC/C=C\C/C=C\C/C=C\C/C=C\C/C=C\CC)CC1 [I-67, (4Z,7Z,10Z,13Z,16Z,19Z)-1-[4-((5Z,8Z,11Z,14Z,17Z)-icosa-5,8,11,14,17-pentaenoyl)-piperazin-1-yl]-docosa-4,7,10,13,16,19-hexaen-1-one]
> 3.70 | – | CC/C=C\C/C=C\C/C=C\C/C=C\C/C=C\CCCC(=O)N[C@@H](CCCCNC(=O)CCCC[C@@H]1CCSS1)C(=O)O [I-107, (S)-6-((R)-5-[1,2]dithiolan-3-yl-pentanoylamino)-2-((5Z,8Z,11Z,14Z,17Z)-icosa-5,8,11,14,17-pentaenoylamino)-hexanoic acid]
